Test results published in patent US11970478B1, “9-(2-hydroxyquinolin-3-yl)-10-(2-hydroxyethyl)-3,3,6,6-tetramethyl-3,4,6,7,9,10-hexahydroacridine1,8(2H,5H)-dione as an antimicrobial compound” (KING FAISAL UNIVERSITY, priority 2023, dated 2024).

Columns and labels:
Details in all cases: after 10, 20, 40 and 60 minutes at all dilutions 1:100 to 1:800
[1] = system: St. Aereus; assay: Antimicrobial activity by agar dilution, St. Aereus; assay type: cell-based, Staphylococcus aureus
Experimental: (§1) The antimicrobial properties of the synthesized compound 9-(2-hydroxyquinolin-3-yl)-10-(2-hydroxyethyl)-3,3,6,6-tetramethyl-3,4,6,7,9,10-hexahydroacridine1,8(2H,5H)-dione were studied by the method of agar dilution. Test solutions of each compound were prepared in a concentration of 1% using dimethylformamide as a solvent. Then they were diluted in a physiological solution to obtain the final experimental dilutions 1:100, 1:200, 1:400, and 1:800. The effect of these substances were compared with furacillin in a controllable study. The testing microbes used were gram positive bacteria St. Aereus, gram negative bacteria E. Coli and Ps. Aeruginosa, and Candida albicans fungi. The experiments used for this survey were meat-pentonlu agar (EPA) for cultivation of bacteria and Saburo environment for fungi. Each experiment used 1 ml of test solution on each plate 500 min. Add 2 drops of emulsified with microbes feel. All experimental samples were taken from the agar after 10, 20, 40, 60 minutes in the environment on the basis of Patrk planted. Bacteria were cultivated at a temperature of 37° C. for 1 day and the mushroom was kept in a thermostat for 2 hours at a temperature of 28° C. Then the results were checked.

[2] = system: E. Coli; assay: Antimicrobial activity by agar dilution, E. Coli; assay type: cell-based, Escherichia coli
Experimental: as §1

[3] = system: Ps. Aeruginosa; assay: Antimicrobial activity by agar dilution, Ps. Aeruginosa; assay type: cell-based, Pseudomonas aeruginosa
Experimental: as §1

[4] = system: Candida albicans; assay: Antimicrobial activity by agar dilution, Candida albicans; assay type: cell-based
Experimental: as §1

Measured: inhibition activity (in words)

CC1(C)CC(=O)C2=C(C1)N(CCO)C1=C(C(=O)CC(C)(C)C1)C2c1cc2ccccc2nc1O [9-(2-hydroxyquinolin-3-yl)-10-(2-hydroxyethyl)-3,3,6,6-tetramethyl-3,4,6,7,9,10-hexahydroacridine1,8(2H,5H)-dione]
highest inhibition activity: all assays above
